# Experimental data taken from patent US20110319379A1, “Substituted Indazole Amides And Their Use As Glucokinase Activators” (priority 2009, published 2011).
# Target: T1, recombinant human glucokinase (beta cell isoform) (Homo sapiens, UniProt P35557)
# T1 construct: Full-length glucokinase (beta cell isoform) was His-tagged at the N-terminus; His tag (N); made in house; host or cells: E. coli BL21(DE3), vector pBCGK
# T1 sequence (P35557 1-465): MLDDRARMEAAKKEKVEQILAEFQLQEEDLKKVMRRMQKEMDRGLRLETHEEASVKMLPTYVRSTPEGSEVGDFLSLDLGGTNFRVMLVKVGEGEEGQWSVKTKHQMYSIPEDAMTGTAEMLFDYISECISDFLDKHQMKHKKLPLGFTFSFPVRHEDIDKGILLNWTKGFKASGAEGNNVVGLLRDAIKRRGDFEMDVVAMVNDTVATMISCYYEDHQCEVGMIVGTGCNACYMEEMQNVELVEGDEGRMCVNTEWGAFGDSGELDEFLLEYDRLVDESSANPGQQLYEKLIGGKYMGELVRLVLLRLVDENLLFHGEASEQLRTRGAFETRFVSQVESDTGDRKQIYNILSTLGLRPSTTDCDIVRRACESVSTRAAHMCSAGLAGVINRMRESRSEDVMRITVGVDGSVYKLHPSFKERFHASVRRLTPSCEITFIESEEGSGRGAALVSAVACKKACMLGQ
# Assay: Assay 1: Evaluating Activator Potency and Maximum Activation at 5 mM Glucose
# Type: biochemical
# Details: Assay 1; 5 mM glucose; NADH depletion at 340 nm, PK/LDH coupled; read-out: Glucokinase EC50
# Method: Representative compounds of this invention were evaluated in biochemical assays (Assay 1 or Assay 2) to characterize their glucokinase activation properties.
# The recombinant human glucokinase protein utilized in both assays was prepared and purified as described below.
# BL21(DE3) cells (Invitrogen Corporation, Carlsbad, Calif.) containing pBCGK (C or N H is) vector were grown at 37° C. (in 2XYT) until the OD600 was between 0.6-1.0. Expression was induced by addition of isopropylthiogalactoside to a final concentration of 0.1-0.2 mM to the cells which were then incubated overnight at 23° C. The next day, cells were harvested via centrifugation at 5000 rpm for 15 minutes at 4° C. The cell pellet was stored at −80° C. for future purification.
# Beta Cell Glucokinase His-Taq Purification Conditions: A Ni-NTA (Quigan, Germantown, Md.) column (15-50 mL) was used for separation. Two buffers were prepared, 1) a lysis/nickel equilibration and wash buffer and 2) a nickel elution buffer. The lysis/equilibration/wash buffer was prepared as such: 25 mM HEPES buffer at pH 7.5, 250 mM NaCl, 20 mM imidazole, and 14 mM β-mercaptoethanol as final concentrations. The elution buffer was prepared as such: 25 mM HEPES at pH 7.5, 250 mM NaCl, 400 mM imidazole, and 14 mM β-mercaptoethanol as final concentrations. The buffers were each filtered with a 0.22 μm filter prior to use. The cell pellet (1 L culture) was resuspended in 300 mL of the lysis/equilibration buffer. The cells were then lysed (3 times) with a Microfluidics Model 110Y microfluidizer (Microfluidics Corporation, Newton, Mass.). The slurry was centrifuged with a Beckman Coulter Model LE-80K ultracentrifuge (Beckman Coulter, Fullerton, Calif.) at 40,000 rpm for 45 minutes at 4° C. The supernatant was transferred to a chilled flask. A volume of 20 μl was saved for gel analysis. A Pharmacia AKTA (GMI, Inc., Ramsey, Minn.) purification system was used for separation. The prime lines were purged with lysis/equilibration buffer. The Ni-NTA column was equilibrated with 200 mL of the lysis/equilibration buffer at a flow rate of 5 mL/minute. The supernantant was loaded over the column at 4 mL/minute and the flow-through was collected in a flask. The unbound proteins were washed with lysis/equilibration buffer at a flow rate of 5 mL/minute until the ultraviolet reaches baseline. The protein was then eluted from the column with the imidazole elution buffer via imidazole gradient 20 mM to 400 mM over 320 mL. The column was then stripped of any additional protein with 80 mL of the elution buffer. The elution fractions were each 8 mL, for a total yield of 50 samples. Fractions were analyzed by sodium dodecyl sulfate polyacrylamide (SDS-PAGE) and the fractions containing protein of interest were pooled and concentrated to 10 mL using ultrafiltration cell with a 10,000 molecular weight cut-off (MWCO) Millipore membrane (Sigma-Aldrich, St. Louis, Mo.) under nitrogen gas (60 psi). Protein was further purified by size exclusion chromatography (SEC) using a […] (320 mL) (Amersham Pharmacia, Uppsala, Sweden). SEC was equilibrated with 450 mL sizing buffer containing 25 mM HEPES pH 7.0, 50 mM NaCl, and 5 mM dithiothreitol. Concentrated protein was then loaded over SEC and elution with 400 mL sizing buffer was performed overnight at 0.5 mL/minute. The elution fractions were 5 mL each. The fractions were analyzed by SDS-PAGE and protein containing fractions were pooled. Concentration was measured using Bradford Assay/BSA Standard. Purified protein was stored in small aliquots at −80° C.
# Assay 1: Evaluating Activator Potency and Maximum Activation at 5 mM Glucose
# Full-length glucokinase (beta cell isoform) was His-tagged at the N-terminus and purified by a Ni column followed by size exclusion chromatography as described above. Glucose was obtained from Calbiochem (San Diego, Calif.) and other reagents were purchased from Sigma-Aldrich (St. Louis, Mo.).
row,EC50 [nM],Structure (SMILES)
1,2770,"COc1cnc(NC(=O)c2cc(Oc3cnc(C(=O)N(C)C)cn3)c3cn(C)nc3c2)cn1 [Example 1H, 4-{[5-(dimethylcarbamoyl)pyrazin-2-yl]oxy}-N-(5-methoxypyrazin-2-yl)-2-methyl-2H-indazole-6-carboxamide]"
2,19400,"Cc1cnc(NC(=O)c2cc(Oc3cnc(C(F)(F)F)cn3)c3cn(C)nc3c2)cn1 [Example 1I, 2-methyl-N-(5-methylpyrazin-2-yl)-4-{[5-(trifluoromethyl)pyrazin-2-yl]oxy}-2H-indazole-6-carboxamide]"
3,2730,"CCn1cc2c(Oc3cnc(C(=O)N(C)C)cn3)cc(C(=O)Nc3cnc(C)cn3)cc2n1 [Example 1P, 4-{[5-(dimethylcarbamoyl)pyrazin-2-yl]oxy}-2-ethyl-N-(5-methylpyrazin-2-yl)-2H-indazole-6-carboxamide]"
4,1410,"CCn1cc2c(Oc3ccc(S(C)(=O)=O)cc3)cc(C(=O)Nc3ccc(C)cn3)cc2n1 [Example 1R, 2-ethyl-N-(5-methylpyridin-2-yl)-4-[4-(methylsulfonyl)phenoxy]-2H-indazole-6-carboxamide]"
5,1340,"CCS(=O)(=O)c1ccc(Oc2cc(C(=O)Nc3ccccn3)cc3nn(C)cc23)cc1 [Example 1S, 4-[4-(ethylsulfonyl)phenoxy]-2-methyl-N-pyridin-2-yl-2H-indazole-6-carboxamide]"
6,1890,"Cc1cnc(NC(=O)c2cc(Oc3ccc(S(=O)(=O)C4CC4)cc3)c3cn(C)nc3c2)cn1 [Example 1U, 4-[4-(cyclopropylsulfonyl)phenoxy]-2-methyl-N-(5-methylpyrazin-2-yl)-2H-indazole-6-carboxamide]"
7,1080,"Cc1ccc(NC(=O)c2cc(Oc3cnc(C(=O)N(C)C)nc3)c3cn(C)nc3c2)nc1 [Example 1Z, 4-{[2-(dimethylcarbamoyl)pyrimidin-5-yl]oxy}-2-methyl-N-(5-methylpyridin-2-yl)-2H-indazole-6-carboxamide]"

# The next lines start with the molecule.
row,Structure (SMILES),EC50 [nM]
1,"Cn1ccc(NC(=O)c2cc(Oc3cnc(C(F)(F)F)cn3)c3cn(C)nc3c2)n1 [Example 1J, 2-methyl-N-(1-methyl-1H-pyrazol-3-yl)-4-{[5-(trifluoromethyl)pyrazin-2-yl]oxy}-2H-indazole-6-carboxamide]",22400
2,"Cn1cc2c(Oc3cnc(C(F)(F)F)cn3)cc(C(=O)Nc3cnn(C)n3)cc2n1 [Example 1K, 2-methyl-N-(2-methyl-2H-1,2,3-triazol-4-yl)-4-{[5-(trifluoromethyl)pyrazin-2-yl]oxy}-2H-indazole-6-carboxamide]",16100
3,"Cc1cnc(NC(=O)c2cc(Oc3ccc(S(C)(=O)=O)cc3)c3cn(C)nc3c2)cn1 [Example 1L, 2-methyl-N-(5-methylpyrazin-2-yl)-4-[4-(methylsulfonyl)phenoxy]-2H-indazole-6-carboxamide]",7810
4,"Cc1ccc(NC(=O)c2cc(Oc3ccc(S(C)(=O)=O)cc3)c3cn(C)nc3c2)nc1 [Example 1M, 2-methyl-N-(5-methylpyridin-2-yl)-4-[4-(methylsulfonyl)phenoxy]-2H-indazole-6-carboxamide]",2660
5,"Cn1ccc(NC(=O)c2cc(Oc3ccc(S(C)(=O)=O)cc3)c3cn(C)nc3c2)n1 [Example 1N, 2-methyl-N-(1-methyl-1H-pyrazol-3-yl)-4-[4-(methylsulfonyl)phenoxy]-2H-indazole-6-carboxamide]",8540
6,"CCn1cc2c(Oc3cnc(C(=O)N(C)C)cn3)cc(C(=O)Nc3ccc(C)cn3)cc2n1 [Example 1O, 4-{[5-(dimethylcarbamoyl)pyrazin-2-yl]oxy}-2-ethyl-N-(5-methylpyridin-2-yl)-2H-indazole-6-carboxamide]",776
7,"CCn1cc2c(Oc3ccc(S(C)(=O)=O)cc3)cc(C(=O)Nc3ccccn3)cc2n1 [Example 1Q, 2-ethyl-4-[4-(methylsulfonyl)phenoxy]-N-pyridin-2-yl-2H-indazole-6-carboxamide]",2420
8,"CCS(=O)(=O)c1ccc(Oc2cc(C(=O)Nc3cnc(C)cn3)cc3nn(C)cc23)cc1 [Example 1T, 4-[4-(ethylsulfonyl)phenoxy]-2-methyl-N-(5-methylpyrazin-2-yl)-2H-indazole-6-carboxamide]",1950
9,"Cn1cc2c(Oc3ccc(S(=O)(=O)C4CC4)cc3)cc(C(=O)Nc3ccccn3)cc2n1 [Example 1V, 4-[4-(cyclopropylsulfonyl)phenoxy]-2-methyl-N-pyridin-2-yl-2H-indazole-6-carboxamide]",1500
10,"CCn1cc2c(Oc3ccc(S(=O)(=O)C4CC4)cc3)cc(C(=O)Nc3cnc(C)cn3)cc2n1 [Example 1W, 4-[4-(cyclopropylsulfonyl)phenoxy]-2-ethyl-N-(5-methylpyrazin-2-yl)-2H-indazole-6-carboxamide]",1480
11,"CCn1cc2c(Oc3ccc(S(=O)(=O)C4CC4)cc3)cc(C(=O)Nc3ccccn3)cc2n1 [Example 1X, 4-[4-(cyclopropylsulfonyl)phenoxy]-2-ethyl-N-pyridin-2-yl-2H-indazole-6-carboxamide]",863

# Same assay, conditions: Assay 1; 5 mM glucose; read-out: Glucokinase EC50
row,Structure (SMILES),EC50 [nM]
1,"Cc1cnc(NC(=O)c2cc(Oc3cnc(C(=O)N(C)C)nc3)c3cn(C)nc3c2)cn1 [Example 1Y, 4-{[2-(dimethylcarbamoyl)pyrimidin-5-yl]oxy}-2-methyl-N-(5-methylpyrazin-2-yl)-2H-indazole-6-carboxamide]",3340
